From patent publication US20140030311A1, “MONOLITHIC INTRAVAGINAL RINGS COMPRISING PROGESTERONE AND METHODS OF MAKING AND USES THEREOF” (TEVA WOMEN'S HEALTH, INC., priority 2009, published 2014)

Assays:
[1] = test system: endometrium; experiment: Post-study mock cycle and donor egg IVF of the two ring non-responders on other progesterone; type: in vivo, human; conditions: for outcome of post-study donor egg IVF: single subject; for biopsy result in post-study mock cycle: single subject without transformation on the ring
Text: There was a fibroid found in surgery post-study, which could have affected blood supply to the endometrium. […] The subject is considering one more IVF attempt with a donor egg.

[2] = test system: IVF cycles; conditions: luteal phase support in IVF cycles; Soliman et al. 1994; cited from earlier work

Row | Compound | outcome of post-study donor egg IVF [1] | biopsy result in post-study mock cycle [1] | pregnancy rates versus placebo [2]
1 | CC(=O)[C@H]1CC[C@H]2[C@@H]3CCC4=CC(=O)CC[C@]4(C)[C@H]3CC[C@]12C [IM progesterone, pregn-4-ene-3,20-dione] | ongoing pregnancy with delivery | adequate transformation | –
2 | CC(=O)[C@H]1CC[C@H]2[C@@H]3CCC4=CC(=O)CC[C@]4(C)[C@H]3CC[C@]12C [micronized progesterone, pregn-4-ene-3,20-dione] | negative βhCG | adequate transformation | –
3 | CC(=O)[C@H]1CC[C@H]2[C@@H]3CCC4=CC(=O)CC[C@]4(C)[C@H]3CC[C@]12C [progesterone, pregn-4-ene-3,20-dione] | – | – | significantly higher pregnancy rates than placebo
